From PubChem BioAssay (NCI) come the findings set out here.

What all share (test): NCI-60 cell line screen, 48 h
For experiment [1], the system named is HS 578T breast.
The subject of experiment [2] is SK-MEL-2 melanoma.
Experiment [3] deals with SK-MEL-28 melanoma.
The subject of experiment [4] is BT-549 breast.
The subject of experiment [5] is DU-145 prostate.
Experiment [6] relates to HCT-15 colon.
Experiment [7] deals with SF-539 CNS.
The test system of experiment [8] is OVCAR-3 ovarian.
For experiment [9], the system named is RPMI-8226 leukemia.
Experiment [10] has as its system LOX IMVI melanoma.
Experiment [11] deals with NCI/ADR-RES ovarian.
The subject of experiment [12] is OVCAR-8 ovarian.
For experiment [13], the system named is ACHN renal.
Experiment [14] has as its system CAKI-1 renal.
Experiment [15] relates to CCRF-CEM leukemia.
Experiment [16] relates to HT29 colon.
Experiment [17] concerns COLO 205 colon.
Experiment [18] relates to U251 CNS.

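Interpolation was linear, between the two tested concentrations surrounding the appropriate level; five concentrations were tested over 48 hours in 96-well plates. Abbreviation: GI50, concentration required for 50% inhibition of growth. TGI denotes the concentration required for complete inhibition of growth.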 Bounds are passed on as bounds.

Turning to `COc1ccc(NC2CC(C)N(C(=O)c3ccccc3)O2)cc1` (stereo unspecified), the TGI in experiment [1], in [2], in experiment [3], in experiment [4], in [5] and in experiment [6] was more than 10 µM throughout. Also, the TGI in experiment [7], in experiment [8], in [9], in [10], in [11] and in experiment [12] was more than 10 µM throughout. Further, the TGI in experiment [13], in experiment [14], in experiment [15], in [16] and in experiment [17] was more than 10 µM in each case.
In the case of `O=c1[nH]c2c(c(=O)[nH]1)SSC2`, the TGI was 56 µM in experiment [1]; 14.5 µM in experiment [2]; 18.7 µM in [3]; 6.65 µM in experiment [4]; 28.9 µM in [5]; more than 91.9 µM in [6]. The TGI was 9.7 µM in experiment [7]; 38 µM in experiment [8]; 6.83 µM in [9]; 6.24 µM in experiment [10]; 8.76 µM in [11]; 10.2 µM in [12]. In addition, the TGI in experiment [13] is more than 67.5 µM; in experiment [14], 44.5 µM; in experiment [18], 30.1 µM; in experiment [16], 40 µM; in experiment [17], 50.7 µM.
For the compound `CC1(C)[C@H]2Cc3cc(-c4cc5c(cn4)[C@@H]4C[C@H]([C@@H]5[C@@H]5c6cc(-c7cc8c(cn7)[C@@H]7C[C@H](C8)C7(C)C)ncc6[C@@H]6C[C@H]5C6(C)C)C4(C)C)ncc3[C@@H]1C2`, the TGI in [1], in experiment [2], in [3], in experiment [4], in experiment [5] and in [6] was more than 100 µM each time. The TGI in experiment [8], in experiment [9], in experiment [10], in experiment [11], in experiment [12] and in experiment [13] was more than 100 µM throughout. The TGI in [14], in experiment [18], in experiment [15], in experiment [16] and in [17] was more than 100 µM in each case.
As for `FC1=C2CCCCCC2SC1(F)F` (stereo unspecified), the TGI in [1], in experiment [2], in experiment [3], in experiment [4], in experiment [5] and in experiment [6] was more than 100 µM throughout. Besides, the TGI in [8] is more than 100 µM; in [9], 84.9 µM; in experiment [10], 31.4 µM; in experiment [11], more than 100 µM; in [12], more than 100 µM; in experiment [13], 79.3 µM. Moreover, the TGI in experiment [14] is more than 100 µM; in experiment [15] it was 18.7 µM; in experiment [16], more than 100 µM; in experiment [17], 39.2 µM.
As to `CCN(CC)CCO/N=C1/C=C2CCC3C(CC[C@@]4(C)C3CC[C@]4(C)O)[C@@]2(C)CC1` (stereo partly specified), the TGI is 33.7 µM in experiment [1]; 36.6 µM in [2]; 39.1 µM in [4]; 34.5 µM in experiment [5]; 13.7 µM in experiment [6]; 14.9 µM in [7]. Moreover, the TGI in experiment [8] stood at 13.6 µM; in experiment [9], 15.2 µM; in [10], 14.8 µM; in experiment [11], 7.48 µM; in experiment [12], 20.4 µM; in experiment [13] it was 39.2 µM. The TGI worked out at 20.1 µM in experiment [14]; 11.2 µM in [18]; 3.97 µM in [15]; 5.35 µM in experiment [16]; 14.6 µM in experiment [17].
Turning to `CCOP(=O)(OCC)/C(C#N)=C/c1ccnc2ccccc12`, the TGI in [1] was 69.6 µM; in experiment [2], 50.5 µM; in experiment [3], more than 100 µM; in experiment [4], 50.9 µM; in experiment [5], more than 100 µM; in experiment [6], 52.4 µM. The TGI in experiment [7] was 49.2 µM; in experiment [8] it was 70.6 µM; in experiment [9], more than 100 µM; in [10] it was more than 100 µM; in [11], more than 100 µM; in [12], 52 µM. The TGI in experiment [13] was more than 100 µM; in experiment [14] it was 80.3 µM; in experiment [18], more than 100 µM; in experiment [16] it was 37.5 µM; in experiment [17], 38.1 µM.
For `O=c1ccn(C2OC(CN(O)CCC3C(CO)OC(n4ccc(=O)[nH]c4=O)C3O)C(O)C2O)c(=O)[nH]1` (stereo unspecified), the TGI in experiment [1], in experiment [2], in experiment [3], in [4], in [5] and in [6] was more than 100 µM each time. For the same compound, the TGI in [8], in experiment [9], in [11], in experiment [12], in experiment [13] and in experiment [14] was more than 100 µM in each case. Also, the TGI in experiment [18], in [15], in [16] and in experiment [17] was more than 100 µM throughout.
For `CC1=NN=C(N)NC1=CC(Sc1ccc(Cl)cc1)c1c(O)ccc2ccccc12` (stereo unspecified), the TGI was 41.3 µM in [1]; 23.2 µM in experiment [2]; more than 62.6 µM in experiment [3]; more than 81.5 µM in [4]; more than 84.6 µM in [5]; more than 63.3 µM in [6]. In addition, the TGI is more than 100 µM in [9]; more than 65.2 µM in experiment [10]; 71.9 µM in experiment [11]; 43.6 µM in experiment [12]; 28.1 µM in [13]; more than 69.6 µM in [14]. Further, the TGI amounted to 76.8 µM in experiment [18], 31.5 µM in experiment [15], 48.4 µM in [16] and 36.8 µM in [17].
On to `CN(C)CC1CN=C(NC(=O)Nc2ccccc2)O1` (stereo unspecified), for which the TGI in experiment [1], in experiment [2], in [3], in experiment [4], in [5] and in [6] was more than 100 µM throughout. The TGI in experiment [7], in experiment [9], in [10], in [11], in experiment [12] and in [13] was more than 100 µM in each case. The TGI in [14], in experiment [18], in experiment [15], in [16] and in [17] was more than 100 µM each time.
For `COc1ccc(N=[N+]([O-])c2ccc(OC)cc2)cc1`, the TGI in experiment [1], in experiment [2], in [3], in [4], in [5] and in experiment [6] was more than 100 µM each time. In addition, the TGI in experiment [8], in experiment [9], in experiment [11], in experiment [12], in experiment [13] and in [14] was more than 100 µM in each case. Further, the TGI in [18], in experiment [16] and in experiment [17] was more than 100 µM each time.
Turning to `CC(=O)OCC(Br)C1(C)CCC(C(C)(C)Br)O1` (stereo unspecified), the TGI in [1], in experiment [2], in experiment [3], in [4], in [5] and in experiment [7] was more than 100 µM each time. The TGI in [8], in experiment [9], in experiment [10], in experiment [11], in [13] and in experiment [14] was more than 100 µM each time. Besides, the TGI in [18], in experiment [15], in experiment [16] and in [17] was more than 100 µM each time.
For `CC(=O)c1sc(=N)n(-c2c(C)cccc2C)c1C`, the TGI in [1], in experiment [2], in experiment [3], in experiment [4], in [5] and in [6] was more than 100 µM throughout. Besides, the TGI in [7], in experiment [8], in experiment [9], in [10], in [11] and in experiment [13] was more than 100 µM each time. Also, the TGI in experiment [18], in experiment [15], in experiment [16] and in [17] was more than 100 µM throughout.
With `Cc1ccc2c(=O)cc(-c3sc4ccccc4c3C)[nH]c2n1`, the TGI in experiment [1] was 51.7 µM; in experiment [2] it was more than 100 µM; in [3] it was 71.4 µM; in [4], 44.7 µM; in experiment [5], 65.9 µM; in experiment [6] it was 73.8 µM. Besides, the TGI amounted to 50.1 µM in [8]; 38.1 µM in [9]; 46.7 µM in [10]; 47.6 µM in experiment [11]; 56.3 µM in [12]; 53.3 µM in experiment [14]. In addition, the TGI in experiment [18] was more than 100 µM; in experiment [15] it was 58.4 µM; in [16], 78.1 µM; in [17] it was 65.8 µM. Moreover, the GI50 in experiment [8] was 19.7 µM; in experiment [18] it was 38.7 µM.
Take `CC(=O)c1cc(C)n2c1CS[C@@H]2c1ccccc1`: the TGI in experiment [1] is more than 100 µM; in [2] it was more than 100 µM; in experiment [3] it was more than 100 µM; in experiment [4], more than 100 µM; in experiment [5], 93.6 µM; in experiment [6], more than 100 µM. Also, the TGI in experiment [8] was more than 100 µM; in experiment [9], 44 µM; in experiment [10], more than 100 µM; in experiment [11], more than 100 µM; in experiment [12] it was more than 100 µM; in experiment [13] it was more than 100 µM. The TGI is more than 100 µM in [14]; 92.7 µM in experiment [18]; 60.9 µM in experiment [15]; more than 100 µM in experiment [16]; 29 µM in experiment [17].
On to `COc1ccc(CCNC(=O)[C@H]2CCCC[C@@H]2CCO)cc1OC`, for which the TGI in [1], in experiment [2], in [3], in experiment [4], in experiment [5] and in [6] was more than 100 µM throughout. Moreover, the TGI in experiment [7], in [8], in experiment [9], in [11], in experiment [12] and in experiment [13] was more than 100 µM each time. Moreover, the TGI in experiment [14], in experiment [18], in experiment [15], in experiment [16] and in [17] was more than 100 µM in each case.
As for `O=C(NNC(=O)c1ccccc1O)c1ccc(O)cc1`, the TGI in experiment [1] was more than 100 µM; in experiment [2], 94.7 µM; in experiment [3], more than 100 µM; in experiment [4], more than 100 µM; in experiment [5], more than 100 µM; in experiment [6], more than 100 µM. Moreover, the TGI is more than 100 µM in experiment [7]; more than 100 µM in experiment [8]; more than 100 µM in [9]; more than 100 µM in [10]; 90.9 µM in experiment [11]; more than 100 µM in experiment [12]. Moreover, the TGI in experiment [14], in experiment [18], in experiment [15], in experiment [16] and in experiment [17] was more than 100 µM throughout.
Consider `N#CCCN(CCN(CCC#N)C(=O)Nc1ccccc1)C(=O)Nc1ccccc1`, for which the TGI in experiment [1], in experiment [2], in experiment [3], in experiment [4], in [5] and in [6] was more than 100 µM each time. The TGI in experiment [9], in [10], in [11], in experiment [12], in [13] and in experiment [18] was more than 100 µM throughout. Moreover, the TGI in [15], in experiment [16] and in [17] was more than 100 µM in each case.
